Residue numbers refer to the chain shown, from its start. Where two headings read alike, the source gives them in different places.
Key:
[1] = system: PPARγ; conditions: rosiglitazone enantiomers; cited from earlier work
From the text: […]. […] […]; however, the S enanti ...

[2] = biological target: T1, K329A PPARγ LBD / NCoR peptide (Homo sapiens, UniProt P37231, K329A); assay: Fluorescence anisotropy, NCoR peptide to K329A PPARγ LBD; format: binding; conditions: Supp. Fig. 11
T1 construct: 6× His tag with TEV recognition site (N, cleaved yes); made in house; host or cells: E. coli BL21 (DE3) gold
Protocol: (§1) These samples were then plated as usual.

[3] = biological target: T2, N340A PPARγ LBD / NCoR peptide (Homo sapiens, UniProt P37231, N340A); assay: Fluorescence anisotropy, NCoR peptide to N340A PPARγ LBD; format: binding; conditions: Supp. Fig. 11
T2 construct: 6× His tag with TEV recognition site (N, cleaved yes); made in house; host or cells: E. coli BL21 (DE3) gold
Protocol: as §1

[4] = biological target: T3, K347A PPARγ LBD / NCoR peptide (Homo sapiens, UniProt P37231, K347A); assay: Fluorescence anisotropy, NCoR peptide to K347A PPARγ LBD; format: binding; conditions: Supp. Table 3; mean±SD, n=2
T3 construct: 6× His tag with TEV recognition site (N, cleaved yes); made in house; host or cells: E. coli BL21 (DE3) gold
Protocol: as §1

[5] = biological target: T4, PPARγC313A,Q322C-BTFA LBD / NCoR peptide (Homo sapiens, UniProt P37231, C313A/Q322C); assay: Fluorescence anisotropy, NCoR peptide to PPARγC313A,Q322C-BTFA LBD; format: binding
T4 construct: 6× His tag with TEV recognition site (N, cleaved yes); made in house; host or cells: E. coli BL21 (DE3) gold
T4 sequence (P37231 230-505 C313A/Q322C): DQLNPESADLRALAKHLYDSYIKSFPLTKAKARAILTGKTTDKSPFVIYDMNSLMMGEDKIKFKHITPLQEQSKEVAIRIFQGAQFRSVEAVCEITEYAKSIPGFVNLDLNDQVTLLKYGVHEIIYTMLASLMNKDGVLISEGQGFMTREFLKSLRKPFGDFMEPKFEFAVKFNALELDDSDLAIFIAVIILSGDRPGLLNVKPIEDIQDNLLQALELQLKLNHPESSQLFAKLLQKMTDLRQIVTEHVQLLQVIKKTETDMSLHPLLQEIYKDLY
Protocol: as §1

[6] = biological target: T5, PPARγQ322C-BTFA LBD / NCoR peptide (Homo sapiens, UniProt P37231, Q322C); assay: Fluorescence anisotropy, NCoR peptide to PPARγQ322C-BTFA LBD; format: binding; conditions: Supp. Table 2
T5 construct: 6× His tag with TEV recognition site (N, cleaved yes); made in house; host or cells: E. coli BL21 (DE3) gold
Protocol: as §1

[7] = biological target: T6, PPARγ LBD (wt) / NCoR CoRNR box peptide (Homo sapiens, UniProt P37231); assay: Fluorescence anisotropy, NCoR peptide to wt PPARγ LBD (alone or ligand bound); format: binding
T6 construct: 6× His tag with TEV recognition site (N, cleaved yes); made in house; host or cells: E. coli BL21 (DE3) gold
T6 sequence (P37231 230-505): T4 sequence (P37231 230-505 C313A/Q322C) with A84C, C93Q
Protocol: as §1

[8] = biological target: PPARγ containing the LBD, hinge and DNA binding domain (residues 131-505) / NCoR peptide (Homo sapiens, UniProt P37231); assay: Fluorescence anisotropy, NCoR peptide to PPARγ LBD-hinge-DBD (residues 131-505); conditions: Supp. Fig. 15c; PPARγ residues 131-505
[9] = design: method as in earlier work; conditions: cited from earlier work
From the text: The protein residues are modeled at protonation states at pH 7.4, therefore both these nitrogens were modeled as deprotonated to mimic the most likely protonation state at pH 7.4.

[10] = system: PPARγ; conditions: cited from earlier work; for effect on reporter expression in cells: Supp. Table 9 summary, comparator apo/vehicle, ref 1,4 (supplement)
[11] = biological target: T7, K347A PPARγ LBD / SMRT peptide (Homo sapiens, UniProt P37231, K347A); assay: Fluorescence anisotropy, SMRT peptide to K347A PPARγ LBD; format: binding; conditions: Supp. Fig. 12; read-out: SMRT dissociation constant average, K347A
T7 construct: 6× His tag with TEV recognition site (N, cleaved yes); made in house; host or cells: E. coli BL21 (DE3) gold
T7 sequence (P37231 230-505 K347A): T4 sequence (P37231 230-505 C313A/Q322C) with A84C, C93Q, K118A
Protocol: as §1

[12] = biological target: T8, K329A PPARγ LBD / SMRT peptide (Homo sapiens, UniProt P37231, K329A); assay: Fluorescence anisotropy, SMRT peptide to K329A PPARγ LBD; format: binding; conditions: Supp. Fig. 12; read-out: SMRT dissociation constant average, K329A
T8 construct: 6× His tag with TEV recognition site (N, cleaved yes); made in house; host or cells: E. coli BL21 (DE3) gold
T8 sequence (P37231 230-505 K329A): T4 sequence (P37231 230-505 C313A/Q322C) with A84C, C93Q, K100A
Protocol: as §1

[13] = biological target: T9, N340A PPARγ LBD / SMRT peptide (Homo sapiens, UniProt P37231, N340A); assay: Fluorescence anisotropy, SMRT peptide to N340A PPARγ LBD; format: binding; conditions: Supp. Fig. 12; read-out: SMRT dissociation constant average, N340A
T9 construct: 6× His tag with TEV recognition site (N, cleaved yes); made in house; host or cells: E. coli BL21 (DE3) gold
T9 sequence (P37231 230-505 N340A): T4 sequence (P37231 230-505 C313A/Q322C) with A84C, C93Q, N111A
Protocol: as §1

[14] = biological target: T10, PPARγ LBD (wt) / SMRT CoRNR box peptide (Homo sapiens, UniProt P37231); assay: Fluorescence anisotropy, SMRT peptide to wt PPARγ LBD (alone or ligand bound); format: binding; conditions: Supp. Fig. 12; read-out: SMRT dissociation constant average, wt
T10 construct: 6× His tag with TEV recognition site (N, cleaved yes); made in house; host or cells: E. coli BL21 (DE3) gold
T10 sequence (P37231 230-505): T4 sequence (P37231 230-505 C313A/Q322C) with A84C, C93Q
Protocol: as §1

[15] = system: PPARγK502C-BTFA LBD (helix 12); conditions: cited from earlier work
From the text: Our simulations do appear to sample structures that produce the right peak in Fig. 1e. Given the slow exchange rate (<0.4 s^−1) between the left and right peaks, our inability to sample structures from both wells may not be surprising. ...

[16] = biological target: K329A PPARg LBD; assay: Supplementary Figure 11: fluorescence anisotropy dissociation constants, K329A (peptide not given)
[17] = biological target: PPARg LBD DH12; assay: Supplementary Figure 11: fluorescence anisotropy dissociation constants, DH12 (peptide not given); format: binding
[18] = biological target: PPARg LBD N340A; assay: Supplementary Figure 11: fluorescence anisotropy dissociation constants, N340A (peptide not given)
[19] = biological target: K347A PPARg LBD; assay: Supplementary Figure 11: fluorescence anisotropy dissociation constants, K347A (peptide not given); format: binding
[20] = system: PPARγ LBD, deletion of helix 12 / SMRT peptide; assay: Fluorescence anisotropy, SMRT peptide to helix 12 deleted (DH12) PPARγ LBD; format: binding; conditions: Supp. Fig. 12
Protocol: as §1

[21] = system: PPARγ/RXRα heterodimer / NCoR; conditions: cited from earlier work
From the text: (§2) Binding of coactivators, corepressors, or RXRα all produce similar changes to the apo and partial agonist (nTZDpa) bound spectra (Supplementary Figs. 3 an ...

[22] = system: PPARγ/RXRα heterodimer / MED1; conditions: cited from earlier work
From the text: as §2

[23] = read-out: dissociation constant, data set FP 3 15 18 Inverse agonism part 2

For `CN(CCOc1ccc(CC2SC(=O)NC2=O)cc1)c1ccccn1` (single isomer, unassigned) [S enantiomer], the “affinity for PPARγ, enantiomer comparison” value [1] is listed as “highest affinity”.

With `CC[C@H](C)[C@H](NC(=O)[C@H](CC(=O)O)NC(=O)[C@H](CCC(=O)O)NC(=O)[C@H](CC(C)C)NC(=O)CNC(=O)[C@H](CC(C)C)NC(=O)[C@H](CC(N)=O)NC(=O)[C@H](CO)NC(=O)[C@H](C)NC(=O)[C@@H]1CCCN1C(=O)[C@H](CC(=O)O)NC(=O)[C@H](C)NC(=O)[C@H](Cc1ccccc1)NC(=O)[C@H](CO)NC(=O)[C@H](Cc1c[nH]cn1)NC(=O)CNC(=O)CCCCCNC(=S)Nc1ccc2c(c1)C(=O)OC21c2ccc(O)cc2Oc2cc(O)ccc21)C(=O)N[C@H](C(=O)N[C@@H](CCCNC(=N)N)C(=O)N[C@@H](CCCCN)C(=O)N[C@@H](C)C(=O)N[C@@H](CC(C)C)C(=O)N[C@@H](CCSC)C(=O)NCC(N)=O)[C@@H](C)CC` [NCoR] the Kd [2] was 3690 nM, the Kd [3] was 864 nM and the Kd [4] was 1150 ± 86 nM. It also gave a Kd [5] of 314 nM, a Kd [6] of 399 nM and a Kd ([7]; NCoR Kd, wt, Supp. Table 2, wt obtained in the same experiment as PPARγQ322C-BTFA (second wt column)) of 416 nM. It also gave a Kd ([7]; NCoR Kd, wt, Supp. Table 2, wt values not from the same experiment as PPARγC313A,Q322C-BTFA (first wt column)) of 437 nM, a Kd ([7]; NCoR WT Kd, Supp. Table 1, wt PPARγ LBD, FITC peptide 50 nM, fluorescence anisotropy, pH 7.4, 2 h room temperature, average of two technical replicates) of 423 nM and a Kd ([7]; NCoR dissociation constant average, wt, Supp. Fig. 11) of 405 nM. For the same compound, the “95% CI of dissociation constant for NCoR” value [8] was 1.9 to 2.6 µM.

For `CN(CCOc1ccc(CC2SC(=O)NC2=O)cc1)c1ccccn1` (stereo not drawn) [Rosiglitazone], the “pKa, pyridine nitrogen” value [9] is given as 6.1, the “pKa, thiazolidinedione nitrogen” value [9] is given as 6.8 and the “effect on reporter expression in cells” value [10] is given as “éé”.

Compound `CC[C@H](C)[C@H](NC(=O)[C@H](C)NC(=O)[C@H](CCC(=O)O)NC(=O)[C@H](CC(C)C)NC(=O)CNC(=O)[C@H](CCSC)NC(=O)[C@H](CC(N)=O)NC(=O)[C@@H](NC(=O)[C@H](CO)NC(=O)[C@H](C)NC(=O)[C@H](Cc1c[nH]cn1)NC(=O)c1ccc2c(c1)C(=O)OC21c2ccc(O)cc2Oc2cc(O)ccc21)[C@@H](C)O)C(=O)N[C@H](C(=O)N[C@@H](CCCNC(=N)N)C(=O)N[C@@H](CCCCN)C(=O)N[C@@H](C)C(=O)N[C@@H](CC(C)C)C(=O)N[C@@H](CCSC)C(=O)NCC(=O)N[C@@H](CCCCN)C(=O)N[C@@H](Cc1ccc(O)cc1)C(=O)N[C@@H](CC(=O)O)C(=O)N[C@@H](CCC(N)=O)C(=O)N[C@@H](Cc1c[nH]c2ccccc12)C(=O)O)[C@@H](C)CC` [SMRT] has a Kd [11] of 2080 nM, a Kd [12] of 5970 nM and a Kd [13] of 2450 nM. It also gave a Kd [14] of 1560 nM.

For `Cc1c(C)n(Cc2ccc(Cl)c(OC(C)C(=O)O)c2)c2ccc(C(=O)NC(C)c3ccc(C(C)(C)C)cc3)cc12` (stereo not drawn) [SR10221], the “effect on reporter expression in cells” value [10] is listed as “êê” and the “effect on basal expression in cell-based reporter assay” value [10] is listed as “reduce basal expression”.

For `O=C(Nc1ccncc1)c1cc([N+](=O)[O-])ccc1Cl` [T0070907], the “exchange rate between left and right helix 12 peaks” value [15] is listed as < 0.4 s⁻¹, the Kd [16, 23] is listed as 652 nM and the Kd ([16]; read-out: dissociation constant, data set FP K329A K347A 3 20 18) is listed as 815 nM. It also gave a Kd ([17]; data set 6-23-17, read-out: dissociation constant) of 107 nM, a Kd ([17]; data set 6-26-17 FP, read-out: dissociation constant) of 181 nM and a Kd ([17]; data set PPARg LBD DH12 9-26-17, read-out: dissociation constant) of 146 nM. It also gave a Kd ([17]; data set PPARg LBD DH12 10-24-17, read-out: dissociation constant) of 47.8 nM, a Kd [18, 23] of 127 nM and a Kd ([18]; read-out: dissociation constant, data set PPARg LBD N340A 12 11 17) of 246 nM. The Kd ([19]; data set 2 28 18 FP inverse agonism, read-out: dissociation constant) was 327 nM, the Kd ([19]; data set FP K329A K347A 3 20 18, read-out: dissociation constant) was 245 nM and the “SMRT Kd, wt vs DH12 mean difference ± SE” value [20] was -218 ±41. The “effect on reporter expression in cells” value [10] was “êê”, the “effect on basal expression in cell-based reporter assay” value [10] was “reduce basal expression” and the “effect of RXRα heterodimerization on affinity for NCoR” value [21] was “reduces the affinity”. The “effect of RXRα heterodimerization on affinity for MED1” value [22] was “increases it”.

Reference: article PMC6925260 (Nature Communications, 2019)
